Literature values as cited in patent publication US20150031700A1, “Methods of Treating Cutaneous Flushing Using Selective Alpha-2-adrenergic Receptor Agonists” (GALDERMA LABORATORIES INC., priority 2003, published 2015).

Tests used:
α2 adrenergic receptor [1] = settings: α2 vs α1 adrenergic receptor, compared with clonidine
[2] = toxicity studies; Walters, 1996
α2 adrenergic receptor [3] = settings: compared with clonidine; Burke et al., 1996

Compound | selectivity for the α2 adrenergic receptor relative to clonidine (α2 adrenergic receptor [1]) | oncogenic or teratogenic activity [2] | toxicity [2] | α2 adrenergic receptor activity relative to clonidine (α2 adrenergic receptor [3]) [fold]
Brc1c(NC2=NCCN2)ccc2nccnc12 [brimonidine] | 7-12 fold |  |  | 
brimonidine tartrate |  | no oncogenic or teratogenic activity | nontoxic | 10
